Assay results: paper PMC9440176, “Novel benzylidene benzofuranone analogues as potential anticancer agents: design, synthesis and in vitro evaluation based on CDK2 inhibition assays” (3 Biotech, 2022)

Assays:
[1] = DPPH. free radical scavenging assay
Protocol: DPPH. assay was performed using 96-well plate by serial dilution method. The dilution of methanolic stock solution of the test compounds and standard anti-oxidants was carried out to obtain concentration in the range of 3.9–1000 µM. Quercetin and ascorbic acid were used as standards. To a 100 μL of this solution, 100 μL of 200 µM DPPH^. in methanolic solution was added. The experiment was done in triplicate and the plate was then incubated for 30 min in the dark and later the absorbance was measured at 517 nm using Elisa reader. The percentage DPPH^. Scavenging was calculated using the formula, (Control Absorbance–Test Absorbance)*100/(Control Absorbance). The anti-oxidant activity of the test compounds was expressed in terms of concentration required for 50 percentage inhibition (IC50) (Collins [2005]).

[2] = system: normal epithelial kidney cells (Vero); assay: MTT cytotoxicity assay on Vero; assay type: cell-based; conditions: 24 h, read-out: Inhibition of cell proliferation, IC50, Vero
Protocol: The monolayer cell culture was trypsinized and the cell count was adjusted to 5.0 × 10^5 cells/ml using respective media containing 10% FBS. To each well of the 96-well microtiter plate, 100 µL of the diluted cell suspension (50,000cells/well) was added. After 24 h, when a partial monolayer was formed, the supernatant was flicked off, the monolayer was then washed once again with the medium and 100 µL of different test concentrations of test drugs were added on to the partial monolayer in microtiter plates. The plates were then incubated at 37 °C for 24 h in 5% CO2 atmosphere. After incubation, the test solutions in the wells were discarded and 100 µL of MTT (5 mg/10 ml of MTT in PBS) was added to each well. The plates were then incubated for 4 h at 37 °C in 5% CO2 atmosphere. The supernatant was then removed and 100 µL of DMSO was added and the plates were gently shaken to solubilize the formed formazan. The absorbance was measured using a microtiter plate reader at a wavelength of 590 nm. The percentage growth inhibition was thus calculated using the following formula and the concentration of the test drug required to inhibit the cell growth by 50% (IC50) values is generated from the dose–response curves for each one of the cell lines (Meerloo et al. [2011]).
The test compounds were screened for their in vitro cytotoxicity by MTT assay against two cancer cell lines, namely MCF-7, HCT-116 and normal epithelial kidney cells (Vero). Doxorubicin was used as a reference standard.

[3] = system: HCT 116 cells; assay: Apoptotic DNA fragmentation study; assay type: cell-based, Human
Protocol: Cells were seeded at a concentration of 1 × 10^6 per 35 mm dish and incubated at 37 °C/5% CO2 for 24 h. The confluent cells grown after 24 h of incubation were treated with sample concentrations at 10 μg/ml, 20 μg/ml and control (without sample). After the treatment, cells were trypsinized and both the adherent as well as floating cells were collected by centrifugation at 2000 rpm for 5 min. The cell pellet was later suspended in 0.5 ml lysis buffer (pH 7.8) [Tris–HCl 10 mM, pH 8; EDTA 20 mM, pH 8.0; TritonX-100 0.2% and 4 M NaCl], vortexed vigorously and incubated at 50 °C for 5 min. To the lysate, 0.5 ml of phenol: chloroform: isoamylalcohol was added and mixed for about 2–3 min. Further, it was centrifuged at 10,000 rpm for 15 min at 4 °C.The upper aqueous layer was taken in another tube to which, twice the volume of cold 100% ethanol was added along with 3 M sodium acetate (Final concentration of sodium acetate 0.3 M). It was incubated for 5–10 min at room temperature. Further, centrifuged again at 10,000 rpm for 20 min. After removing the supernatant, the DNA pellet was washed in 70% ethanol and centrifuged at 5000 rpm for the next 10 min. The supernatant was removed, the DNA pellet was air dried and was finally dissolved in TE buffer (Tris–HCl 10 mM, pH 7.4, EDTA 1 mM, pH 8.0) and separated by 2% agarose gel electrophoresis at 100 V for 50 min.

[4] = molecular target: CDK2/Cyclin A (Homo sapiens, UniProt P24941); assay: CDK2/cyclin A inhibitory assay, Z'-LYTE FRET kinase assay; assay type: biochemical; conditions: concentration of 100 micro molar; 1000 ng/ml kinase, 1000 µM ATP
Text: Z’-LYTE® technology involves homogeneous assay design based on FRET and is a universal platform for both screening as well as profiling protein kinases. The assay uses a peptide substrate labeled with two different fluorophores, coumarin donor and fluorescein acceptor on each end. These two fluorophores make up a FRET pair, which allows the transfer of energy when both are present on the same molecule. The initial kinase reaction transfers the ϒ-phosphate of ATP to a tyrosine or serine/threonine residue on the substrate. In a secondary reaction, referred to as the development reaction, a site-specific protease recognizes and cleaves only non-phosphorylated peptide, while phosphorylated substrate remains uncleaved. […] Upon excitation of Coumarin at 400 nm, the FRET signal is measured as a ratio between the Coumarin donor emission at 445–460 nm and the fluorescein acceptor emission at 520–535 nm(Lebakken et al. [2007]).
Initial ten-fold and two-fold dilutions of Kinase and ATP concentrations were used to choose the optimal Kinase and ATP concentration based on the % Phosphorylation.
The assay was carried out according to the kit instructions (384 well format). Briefly, 5X kinase buffer [250 mM HEPES (pH 7.5), 50 mM MgCl2, 5 mM EGTA, 0.05% BRIJ-35] was diluted to 1X using distilled water. The phosphor peptide positive control (Z’-LYTE® Tyr 4 phospho-peptide) and the non-phosphorylated negative control (Z’-LYTE® Tyr 4 peptide) were then diluted to 1:500 with 1× kinase buffer to 2 μM. […] Working development solution was then made by diluting 12 μL of the provided stock solution with 388 μL of the provided development buffer. Aliquots (20 μL) of each peptide mixture were then added to the wells of a Corning 3914 solid white microplate in replicates of 8. The development reaction was initiated by the addition of 10 μL of working development-solution to all the wells. Further, the plates were allowed to incubate at room temperature for 60 min. Reactions were then stopped by the addition of 10 μL of stop solution (Jia et al. [2008]).
Reactions were quantitated using a Tecan Robotic Microplate Reader. Reader control, blank subtraction, ratio metric calculations and finally graph plotting were carried out using Gen5™ Data Analysis Software.
The CDK2/Cyclin A assay was carried out as per the manufacturer’s instruction using suitable controls and standard.
The inhibitory assay was carried out using the stock of 10 mM in DMSO. Samples were further serially diluted to obtain concentrations of 100 μM. The concentrations were chosen based on the IC50 values obtained in the MTT assay. A total of 23 analogues were selected for the assay based on their antiproliferative activity. Further, selected compounds were screened and tested against the target CDK2/Cyclin A, and their % phosphorylation and % inhibition were recorded.

SMILES: COc1ccc(/C=C2\Oc3c(c(OC)cc(OC)c3C3=CCN(C(C)C)CC3)C2=O)cc1OC [NISOA4]
- IC50 [1]: 159 ± 0.45 µM
- IC50 [2]: > 200 µM
- DNA fragmentation on agarose gel ([3]; 12.5 μM): smearing
- DNA fragmentation on agarose gel ([3]; 25 μM): fragmentation in the form of DNA laddering
- % inhibition on CDK2/cyclin A [4]: 42.787%
